Marks after values point to notes of the source that are not given here.
Experiments:
[1] = tested on: Lithium-pilocarpine induced status epilepticus; design: species or system Sprague-Dawley rats; settings: in vivo
[2] = tested on: Picrotoxin (PIC) induced clonic seizure; experiment: animal or person; assay type: in vivo, ICR mice
[3] = tested on: PTZ (Pentylenetetrazol) induced clonic seizure; experiment: animal or person; assay type: in vivo, ICR mice; settings: for PTZ test (ip) in Mice Protection % / PTZ test (ip) in Mice Peak Time: mouse, in vivo
[4] = tested on: ACTH-refractory infantile spasm (behavioral spasms); experiment: animal or person; assay type: in vivo, Sprague-Dawley rats; settings: for inhibition in vivo at 60 mg/kg: Rattus norvegicus, ip, read-out: ACTH-refractory IS (ip) Protection %, percentage of activity compared to the vehicle only; for ACTH-refractory IS (ip) Peak Time: rat, in vivo
[5] = tested on: PTZ (Pentylenetetrazol) induced clonic seizure; design: species or system SD rats; settings: rat, in vivo
[6] = tested on: Lithium-pilocarpine induced status epilepticus; design: species or system Sprague-Dawley rats; settings: in vivo; remark: listed apart in the source
[7] = Mus musculus, ip, read-out: PIC (ip) percentage of activity compared to the vehicle only

SMILES | Intervention (rat, iv) Protection % [1] | responders at 50 mg/kg [2, 7] [%] | PTZ test (ip) in Mice Protection % [3] | also measured
CCC(OC(N)=O)C(O)c1ccccc1Cl (racemic) [Compound 8, 1-(2-chlorophenyl)-1-hydroxybutyl-2-carbamate] | ^a46 (50%) | 33.3 | – | –
CCCCC(OC(N)=O)C(O)c1ccccc1Cl (racemic) [Compound 14, 1-(2-chlorophenyl)-1-hydroxyhexyl-2-carbamate] | – | 16.7 | ^a20.4 (16.7%) | –
CNC(=O)OC(C)C(O)c1ccccc1Cl (racemic) [Compound 29, 1-(2-chlorophenyl)-1-hydroxypropyl-2-N-methylcarbamate] | – | – | ^a20.4 (33.3%) | –
CCCNC(=O)OC(C)C(O)c1ccccc1Cl (racemic) [Compound 30, 1-(2-chlorophenyl)-1-hydroxypropyl-2-N-propylcarbamate] | – | 16.7 | ^a20.4 (33.3%) | –
CC(C)NC(=O)OC(C)C(O)c1ccccc1Cl (racemic) [Compound 31, 1-(2-chlorophenyl)-1-hydroxypropyl-2-N-isopropylcarbamate] | ^a46 (100%) | 16.7 | ^a20.4 (83.3%) | –
CC(OC(=O)NC1CC1)C(O)c1ccccc1Cl (racemic) [Compound 32, 1-(2-chlorophenyl)-1-hydroxypropyl-2-N-cyclopropylcarbamate] | ^a46 (100%) | – | ^a20.4 (16.7%) | –
C[C@@H](OC(N)=O)[C@@H](O)c1ccccc1Cl [Compound 4, 1-(2-chlorophenyl)-(S)-1-hydroxypropyl-(R)-2-carbamate] | ^a46 (100%) | – | – | inhibition in vivo at 60 mg/kg [4]: 24.3%; ACTH-refractory IS (ip) Peak Time [4]: 3 h; responders at 30 mg/kg [2, 7]: 100%; PTZ test (ip) in Mice Peak Time ([3]; ip): 0.5 h
C[C@H](OC(N)=O)[C@H](O)c1ccccc1Cl [Compound 5, 1-(2-chlorophenyl)-(R)-1-hydroxypropyl-(S)-2-carbamate] | – | – | – | PTZ test (ip) in Mice Peak Time ([3]; ip): 0.5 h
CC[C@H](OC(N)=O)[C@@H](O)c1ccccc1Cl [Compound 6, 1-(2-chlorophenyl)-(S)-1-hydroxybutyl-(S)-2-carbamate] | ^a46 (100%) | 66.7 | – | inhibition in vivo at 60 mg/kg [4]: 76.2%; ACTH-refractory IS (ip) Peak Time [4]: 3 h; PTZ test (ip) in Mice Peak Time ([3]; ip): 0.5 h
CC(C)[C@H](OC(N)=O)[C@@H](O)c1ccccc1Cl [Compound 9, 1-(2-chlorophenyl)-(S)-1-hydroxy-3-methyl-butyl-(S)-2-carbamate] | – | 16.7 | ^a20.4 (33.3%) | –
CCCC[C@H](OC(N)=O)[C@@H](O)c1ccccc1Cl [Compound 12, 1-(2-chlorophenyl)-(S)-1-hydroxyhexyl-(S)-2-carbamate] | – | 16.7 | ^a20.4 (33.3%) | –
CCCC[C@@H](OC(N)=O)[C@H](O)c1ccccc1Cl [Compound 13, 1-(2-chlorophenyl)-(R)-1-hydroxyhexyl-(R)-2-carbamate] | – | 16.7 | – | –
CNC(=O)O[C@@H](C)[C@@H](O)c1ccccc1Cl [Compound 15, 1-(2-chlorophenyl)-(S)-1-hydroxypropyl-(S)-2-N-methylcarbamate] | ^a46 (100%) | 50 | – | inhibition in vivo at 60 mg/kg [4]: 67.4%; ACTH-refractory IS (ip) Peak Time [4]: 2 h; PTZ test (ip) in Rats Protection % [5]: ^b25 (33.3%)
CCCNC(=O)O[C@@H](C)[C@@H](O)c1ccccc1Cl [Compound 16, 1-(2-chlorophenyl)-(S)-1-hydroxypropyl-(S)-2-N-propylcarbamate] | ^a46 (100%) | – | – | PTZ test (ip) in Rats Protection % [5]: ^b30 (33.3%)
C[C@H](OC(=O)NC1CC1)[C@@H](O)c1ccccc1Cl [Compound 18, 1-(2-chlorophenyl)-(S)-1-hydroxypropyl-(R)-2-N-cyclopropylcarbamate] | ^a46 (66.7%) | – | – | PTZ test (ip) in Rats Protection % [5]: ^b30 (16.7%)
CCCNC(=O)O[C@H](C)[C@H](O)c1ccccc1Cl [Compound 23, 1-(2-chlorophenyl)-(R)-1-hydroxypropyl-(R)-2-N-propylcarbamate] | ^a46 (100%) | 16.7 | – | responders at 20.4 mg/kg ([3]; Mus musculus, ip, read-out: PTZ test (ip) in Mice Protection %): 50%
C[C@@H](OC(=O)NC1CC1)[C@H](O)c1ccccc1Cl [Compound 25, 1-(2-chlorophenyl)-(R)-1-hydroxypropyl-(R)-2-N-cyclopropylcarbamate] | ^a46 (100%) | – | ^a20.4 (66.7%) | –
C[C@H](OC(N)=O)[C@@H](O)c1ccc(Cl)cc1Cl [Compound 36, 1-(2,4-dichlorophenyl)-(S)-1-hydroxypropyl-(S)-2-carbamate] | – | 50 | ^a20.4 (33.3%) | inhibition in vivo at 60 mg/kg [4]: 37.5%; ACTH-refractory IS (ip) Peak Time [4]: 3 h
C[C@H](OC(N)=O)[C@@H](O)c1c(Cl)cccc1Cl [Compound 37, 1-(2,6-dichlorophenyl)-(S)-1-hydroxypropyl-(S)-2-carbamate] | ^a46 (100%) | – | – | inhibition in vivo at 60 mg/kg [4]: 83.8%; ACTH-refractory IS (ip) Peak Time [4]: 3 h; ED50 ([2]; Mus musculus, ip, read-out: PIC (ip) ED50): 23.4 mg/kg; PIC (ip) Peak Time ([2]; mice): 0.25 h; PTZ test (ip) in Mice Peak Time ([3]; ip): 0.25 h
C[C@H](OC(N)=O)[C@@H](O)c1cccc(Cl)c1Cl [Compound 38, 1-(2,3-dichlorophenyl)-(S)-1-hydroxypropyl-(S)-2-carbamate] | ^a46 (50%) | 50 | – | –
CC[C@H](OC(N)=O)[C@@H](O)c1ccc(Cl)cc1Cl [Compound 39, 1-(2,4-dichlorophenyl)-(S)-1-hydroxybutyl-(S)-2-carbamate] | – | 66.7 | – | PTZ test (ip) in Mice Peak Time ([3]; ip): 0.5 h
CC[C@H](OC(N)=O)[C@@H](O)c1c(Cl)cccc1Cl [Compound 40, 1-(2,6-dichlorophenyl)-(S)-1-hydroxybutyl-(S)-2-carbamate] | ^a46 (100%) | 66.6 | ^a20.4 (33.3%) | –
CCCC[C@H](OC(N)=O)[C@@H](O)c1ccc(Cl)cc1Cl [Compound 43, 1-(2,4-dichlorophenyl)-(S)-1-hydroxyhexyl-(S)-2-carbamate] | – | 16.6 | – | PTZ test (ip) in Rats Protection % [5]: ^b25 (33.3%)
CCCC[C@H](OC(N)=O)[C@@H](O)c1c(Cl)cccc1Cl [Compound 44, 1-(2,6-dichlorophenyl)-(S)-1-hydroxyhexyl-(S)-2-carbamate] | – | 16.6 | ^a20.4 (33.3%) | –
C[C@@H](OC(N)=O)[C@H](O)c1ccc(Cl)cc1Cl [Compound 45, 1-(2,4-dichlorophenyl)-(R)-1-hydroxypropyl-(R)-2-carbamate] | ^a46 (33.3%) | – | ^a20.4 (16.7%) | PTZ test (ip) in Rats Protection % [5]: ^b50 (16.7%)
C[C@@H](OC(N)=O)[C@H](O)c1c(Cl)cccc1Cl [Compound 46, 1-(2,6-dichlorophenyl)-(R)-1-hydroxypropyl-(R)-2-carbamate] | ^a46 (50%) | 33.3 | – | inhibition in vivo at 60 mg/kg [4]: 78%; ACTH-refractory IS (ip) Peak Time [4]: 3 h
C[C@@H](OC(N)=O)[C@H](O)c1cccc(Cl)c1Cl [Compound 47, 1-(2,3-dichlorophenyl)-(R)-1-hydroxypropyl-(R)-2-carbamate] | – | – | – | inhibition in vivo at 60 mg/kg [4]: 91%; ACTH-refractory IS (ip) Peak Time [4]: 3 h
C[C@H](OC(N)=O)[C@@H](O)c1ccccc1F [Compound 63, 1-(2-fluorophenyl)-(S)-1-hydroxypropyl-(S)-2-carbamate] | ^a46 (50%) | – | – | Prevention (rat, ip) Peak Time [6]: 0.25 h; responders at 60 mg/kg [2, 7]: 33.3%
C[C@H](OC(N)=O)[C@@H](O)c1ccccc1I [Compound 65, 1-(2-iodophenyl)-(S)-1-hydroxypropyl-(S)-2-carbamate] | ^a46 (100%) | – | ^a20.4 (100%) | Prevention (rat, ip) Peak Time [6]: 2 h; inhibition in vivo at 60 mg/kg [4]: 92.1%; ACTH-refractory IS (ip) Peak Time [4]: 3 h; PIC (ip) percentage of activity compared to the vehicle only ([2]; mice, injection amount 50 mg/kg): 50^a (100%)

Reference: patent US9956197B2 (priority 2013, dated 2018)
